Patent US10414769B2, “5,8-dimethyl-9-phenyl-5,8-dihydro-6H-pyrazolo[3,4-h]quinazolin-2-yl)-(1H-pyrazol-3-yl)-amines as IGF-1R/IR inhibitors” (Boehringer Ingelheim International GmbH, priority 2015, dated 2019)
pIC50: −log10 of the molar value.

Columns and labels:
Type in all cases: biochemical
MAPKAPK2 = biological target: T1, MAPKAPK2 (Homo sapiens, UniProt P49137); test: Z'-LYTE kinase selectivity assay MAPKAPK2
T1 construct: purchased Life Technologies PV 3317
Source text: (§1) In order to compare the kinase selectivity of compounds (I) according to the invention with known prior art compounds the commercially provided SelectScreen® Kinase Profiling Service (Z′-LYTE®) was used (Life Technologies GmbH, Darmstadt, Germany) to investigate the ability of the compounds to inhibit a number of different, representatively selected human kinases. Further details regarding this service are available on the Life Technologies website at
(§2) The Z′-LYTE® biochemical assay employs a fluorescence-based, coupled-enzyme format and is based on the differential sensitivity of phosphorylated and non-phosphorylated peptides to proteolytic cleavage. The peptide substrate is labeled with two fluorophores—one at each end—that make up a FRET pair.
(§3) In the primary reaction, the kinase transfers the gamma-phosphate of ATP to a single tyrosine, serine or threonine residue in a synthetic FRET-peptide. In the secondary reaction, a site-specific protease recognizes and cleaves non-phosphorylated FRET-peptides. Phosphorylation of FRET-peptides suppresses cleavage by the Development Reagent. Cleavage disrupts FRET between the donor (i.e., coumarin) and acceptor (i.e., fluorescein) fluorophores on the FRET-peptide, whereas uncleaved, phosphorylated FRET-peptides maintain FRET. A ratiometric method, which calculates the ratio (the Emission Ratio) of donor emission to acceptor emission after excitation of the donor fluorophore at 400 nm, is used to quantitate reaction progress, as shown in the equation below.
(§4) The Test Compounds are screened at 1 μM.
The 2×MAPKAPK2 (# PV 3317)/Ser/Thr 04 (Z′-LYTE® Kinase Assay Kit—Ser/Thr 4 Peptide, # PV 3177) mixture is prepared in 50 mM HEPES pH 7.5, 0.01% BRIJ-35, 10 mM MgCl2, 1 mM EGTA. The final 10 μL Kinase Reaction consists of 0.04-0.18 ng MAPKAPK2 and 2 μM Ser/Thr 04 in 50 mM HEPES pH 7.5, 0.01% BRIJ-35, 10 mM MgCl2, 1 mM EGTA. After the 1 hour Kinase Reaction incubation, 5 μL of a 1:1024 dilution of Development Reagent A is added.

human IGF-1R = biological target: T2, human IGF-1R (Homo sapiens, UniProt P08069); test: Insulin-like growth factor-1 receptor (IGF-1R)-kinase assay (DELFIA); conditions: inhibition of IGF-1R-kinase activity
T2 construct: human IGF-1R (amino acids 964-1370) is expressed as a fusion protein; made in house; host or cells: High Five insect cells (Invitrogen)
Description: Insulin-Like Growth Factor-1 Receptor (IGF-1R)-Kinase Assay
The kinase activity is measured by DELFIA® assay (dissociation-enhanced lanthanide fluorescence immunoassay, Perkin Elmer). The cytoplasmic kinase domain of human IGF-1R (amino acids 964-1370) is expressed as a fusion protein with a glutathione-S-transferase tag (IGF-1R-GST) in High Five™ Cells (Invitrogen). Enzyme activity is measured in the presence of substances and a control substance. Poly-glutamate-tyrosine peptide (pEY, Sigma Aldrich) and biotinylated pEY (bio-pEY) are used as reaction substrates.
10 μL of substance in 25% DMSO are mixed with 30 μL of IGF-1R-GST solution (67 mM HEPES pH 7.4, 15 μg/mL pEY, 1.7 μg/mL bio-pEY, 13.3 mM MgCl2, 3.3 mM dithiothreitol, 0.0033% Brij 35, 2 ng IGF-1R-GST) in 96-well plates. The reactions are started with 10 μL of a 750 μM ATP solution. After 40 min at RT the reactions are stopped with 50 μL of stop solution (250 mM EDTA, 20 mM HEPES pH 7.4). 90 μL from each reaction are transferred onto streptavidin-coated 96-well plates. After 120 min incubation at RT the plates are washed three times with 200 μL phosphate-buffered saline (PBS) per well. The plates are incubated for 60 min with 100 μL of europium-coupled antibody against phospho-tyrosine (diluted 1/2000 in Perkin Elmer DELFIA assay buffer) per well. The plates are washed three times with 200 μL per well of DELFIA washing buffer (Perkin Elmer). 100 μL DELFIA Enhancement Solution (Perkin Elmer) is added to each well, and the plates are incubated for 10 min. The fluorescence signal is measured with a Wallac Victor TRF Reader. IC50 values for the inhibition of the IGF-1R-kinase activity are calculated using the programme GraphPad (Version 3.0).

NEK2 = biological target: T3, NEK2 (Homo sapiens, UniProt P51955); test: Z'-LYTE kinase selectivity assay NEK2
T3 construct: purchased Life Technologies PV 3360
T3 sequence (P51955 1-445): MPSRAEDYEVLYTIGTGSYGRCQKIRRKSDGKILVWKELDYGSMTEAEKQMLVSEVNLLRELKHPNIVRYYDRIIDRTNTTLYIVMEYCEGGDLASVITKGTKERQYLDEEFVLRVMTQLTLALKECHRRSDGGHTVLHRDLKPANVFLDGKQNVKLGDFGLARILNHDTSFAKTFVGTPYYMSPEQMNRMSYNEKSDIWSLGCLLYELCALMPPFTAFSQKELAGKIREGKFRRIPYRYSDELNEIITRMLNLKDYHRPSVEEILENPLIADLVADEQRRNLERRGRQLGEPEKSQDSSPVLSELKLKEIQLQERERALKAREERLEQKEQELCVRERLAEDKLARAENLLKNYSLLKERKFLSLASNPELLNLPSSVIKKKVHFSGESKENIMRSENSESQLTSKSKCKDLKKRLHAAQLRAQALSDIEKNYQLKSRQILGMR
Source text: as §1, §2, §3, §4
The 2×NEK2 (# PV 3360)/Ser/Thr 07 (Z′-LYTE® Kinase Assay Kit—Ser/Thr 7 Peptide, # PV 3180) mixture is prepared in 50 mM HEPES pH 7.5, 0.01% BRIJ-35, 10 mM MgCl2, 1 mM EGTA. The final 10 μL Kinase Reaction consists of 0.5-5.4 ng NEK2 and 2 μM Ser/Thr 07 in 50 mM HEPES pH 7.5, 0.01% BRIJ-35, 10 mM MgCl2, 1 mM EGTA. After the 1 hour Kinase Reaction incubation, 5 μL of a 1:65000 dilution of Development Reagent A is added.

T2 sequence (P08069 964-1367 limits assumed): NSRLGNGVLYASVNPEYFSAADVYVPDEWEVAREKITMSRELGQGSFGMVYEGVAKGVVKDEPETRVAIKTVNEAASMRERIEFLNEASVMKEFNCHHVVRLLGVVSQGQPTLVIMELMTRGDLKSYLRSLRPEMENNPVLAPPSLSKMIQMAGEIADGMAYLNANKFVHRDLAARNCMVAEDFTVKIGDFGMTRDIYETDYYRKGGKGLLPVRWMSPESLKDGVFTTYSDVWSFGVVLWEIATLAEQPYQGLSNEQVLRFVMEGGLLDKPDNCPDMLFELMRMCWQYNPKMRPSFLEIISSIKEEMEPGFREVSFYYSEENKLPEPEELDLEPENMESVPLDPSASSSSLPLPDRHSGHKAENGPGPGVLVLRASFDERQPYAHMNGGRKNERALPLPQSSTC
T1 sequence (P49137 whole entry): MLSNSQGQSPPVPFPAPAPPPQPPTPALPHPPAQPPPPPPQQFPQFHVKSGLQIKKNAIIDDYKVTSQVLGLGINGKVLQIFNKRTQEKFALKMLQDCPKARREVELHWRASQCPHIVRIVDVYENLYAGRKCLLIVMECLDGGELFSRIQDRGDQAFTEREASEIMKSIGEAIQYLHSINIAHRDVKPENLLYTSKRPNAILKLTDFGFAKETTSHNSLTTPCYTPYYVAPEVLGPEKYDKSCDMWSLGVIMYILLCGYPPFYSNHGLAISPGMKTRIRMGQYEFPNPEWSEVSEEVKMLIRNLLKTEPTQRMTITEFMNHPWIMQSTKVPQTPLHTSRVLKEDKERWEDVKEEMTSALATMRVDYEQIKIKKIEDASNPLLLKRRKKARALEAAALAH

| inhibition at 1 µM (MAPKAPK2) [%] | pIC50 (human IGF-1R) | inhibition at 1 µM (NEK2) [%] | SMILES |
| --- | --- | --- | --- |
| -3 | 9.05 | 15 | C[C@@H]1Cc2nn(C)c(-c3ccccc3)c2-c2nc(Nc3ccn(CCN4CCN(C)CC4)n3)ncc21 [Compound I-1] |
| 1 | 8.89 | 25 | C[C@@H]1Cc2nn(C)c(-c3ccccc3)c2-c2nc(Nc3ccn(CCN4CCOCC4)n3)ncc21 [Compound I-2] |
| 2 | 8.72 | 29 | C[C@@H]1Cc2nn(C)c(-c3ccccc3)c2-c2nc(Nc3ccn(CCN4CCN(CC(C)(C)O)CC4)n3)ncc21 [Compound I-3] |
| 5 | 9.00 | 32 | CC(O)CN1CCN(CCn2ccc(Nc3ncc4c(n3)-c3c(nn(C)c3-c3ccccc3)C[C@H]4C)n2)CC1 (stereo partly drawn) [Compound I-7] |
| 5 | 8.55 | 22 | C[C@@H]1Cc2nn(C)c(-c3ccccc3)c2-c2nc(Nc3ccn(CCN4CCN(CC(=O)OC5CCOCC5)CC4)n3)ncc21 [Compound I-8] |
| 3 | 8.92 | 32 | C[C@@H]1Cc2nn(C)c(-c3ccccc3)c2-c2nc(Nc3ccn(CCN4CCN(CC5CCCO5)CC4)n3)ncc21 (stereo partly drawn) [Compound I-9] |
| -2 | 9.05 | 24 | COCCN1CCN(CCn2ccc(Nc3ncc4c(n3)-c3c(nn(C)c3-c3ccccc3)C[C@H]4C)n2)CC1 [Compound I-11] |
